Test results taken from patent publication US20060111305A1, “Metabolites of certain [1,4]diazepino[6,7,1-ij]quinoline derivatives and methods of preparation and use thereof” (Wyeth, priority 2004, published 2006).
Read-outs that look alike come from different tables or passages of the source.

Legend:
[1] = Dog urinary excretion and metabolite profiles after oral capsule of [14C]DCDQ; assay type: in vivo, beagle dogs
Method: Blood samples were collected from the jugular vein at 2, 4, 8, 24 and 48 hour after dose administration into tubes containing potassium EDTA as the anticoagulant and then placed on ice. Aliquots of 50 μL were removed for combustion and determination of radioactivity content. Plasma was immediately obtained from the remaining blood by centrifugation at 4° C. Urine samples were collected into tubes on dry ice at intervals of 0-8, 8-24 and 24-48 hour post-dose. Fecal samples were collected at intervals of 0-8, 8-24 and 24-48 hour post-dose at room temperature, and were homogenized. The biological specimens were stored at approximately −70° C. until analysis.
(§1) For plasma profiles, a TopCount NXT radiometric microplate reader (Perkin Elmer) was used to analyze the radioactivity in collected HPLC fractions. The limit of detection by TopCount was about 1 ng equivalent/mL. A Flo-One β Model A525 radioactivity detector (Perkin Elmer) with a 250 μL LQTR flow cell was used to acquire data for urine and fecal samples. The flow rate of Ultima Flow M scintillation fluid was 1 mL/min, providing a mixing ratio of scintillation cocktail to mobile phase of 5:1. The limits of detection by Flo-One detector were about 200 ng equivalents/mL for urine and 12 ng equivalents/g for feces.
Urine was analyzed for radioactivity concentration and analyzed by HPLC with radioactivity flow detection for metabolite profiles by direct injection to the HPLC column. LC/MS analyses for metabolite identification were also carried out with urine samples.
(§2) A Waters model 2690 HPLC system (Waters Corp., Milford, Mass.) with a built-in autosampler was used for analysis. Separations were accomplished on a Phenomenex Luna C18(2) column (150×2.0 mm, 5 μm) (Phenomenex, Torrance, Calif.). The sample chamber of the autosampler was maintained at 4° C., while the column was at ambient temperature of about 20° C. A variable wavelength UV detector set to monitor 250 nm and a Flo-One β Model A525 radioactivity detector were used for data acquisition. The HPLC mobile phase consisted of 10 mM ammonium acetate, pH 4.5 (A) and acetonitrile (B), and was delivered at 0.2 mL/min. Chromatographic condition A was used for dose analysis, while condition B was used for analysis of urine and plasma, brain and fecal extracts.

[2] = Dog plasma metabolite profiles after single 15 mg/kg oral capsule of [14C]DCDQ; assay type: in vivo, beagle dogs; settings: for concentration at 2 h / concentration at 4 h / concentration at 8 h / concentration at 24 h / concentration at 48 h: male, beagle, dog, plasma, oral, 15 mg/kg, read-out: Estimated plasma concentration in dogs
Method: as §1
Plasma samples were analyzed for metabolite profiles by HPLC. Aliquots of plasma were mixed with two volumes of cold methanol containing 0.1% trifluoroacetic acid (TFA), placed on ice for about 2 minutes and then centrifuged. The supernatant fluid was transferred to a clean tube and evaporated at 22° C. under nitrogen in a Zymark TurboVap LV (Caliper Life Sciences, Hopkinton, Mass.) to a volume of about 0.3 mL. The residue was centrifuged, the supernatant volume measured and extraction efficiency determined by analysis of duplicate 20 μL aliquots for radioactivity. A 200 μL aliquot of the supernatant was injected onto the HPLC column and the effluent was collected at 20 second intervals into 96-well Lumaplates (Perkin Elmer). The plates were dried overnight in an oven at 40° C. and analyzed by a TopCount. Plasma extracts were also analyzed by LC/MS.
as §2

[3] = Incubation of [14C]DCDQ with dog liver microsomes; assay type: in vitro ADME, beagle dogs; settings: NADPH regenerating system, 12 μM DCDQ, 20 min
Method: [^14C]DCDQ was mixed with non-radiolabeled DCDQ (1:3 or 1:5) in the incubations. Microsomal incubations consisted of [^14C]DCDQ, magnesium chloride (10 mM) and liver microsomes incubated in 0.5 mL of 0.1 M potassium phosphate buffer, pH 7.4. [^14C]DCDQ (20 μL) in water was added to the incubation tubes containing buffer, magnesium chloride solution and microsomes. After mixing, the tubes were pre-incubated for 2 minutes in a shaking water bath at 37° C. The reactions were initiated by the addition of UDPGA or the NADPH regenerating system. UDPGA was added to incubations as a 50 μL aliquot of a 20 mM solution in water, to give a final concentration of 2 mM. An NADPH regenerating system (30 μL) was added to incubations to evaluate CYP450-mediated metabolism. The NADPH regenerating system consisted of glucose-6-phosphate (2 mg/mL), glucose-6-phosphate dehydrogenase (0.8 units/mL) and NADP^+ (2 mg/mL). Control incubations were conducted under the same conditions, but without the NADPH generating system, UDPGA or microsomes. All incubations were performed in duplicate. Incubations were stopped by the addition of 0.5 mL ice-cold methanol. Samples were vortex-mixed. Denatured proteins were separated by centrifugation at 4300 rpm and 4° C. for 10 minutes (Model T21 super centrifuge, Sorvall). The protein pellets were extracted with 0.5 mL of methanol. The supernatant was combined for each sample, mixed and evaporated to a volume of about 0.3 mL under a nitrogen stream in a Zymark TurboVap LV evaporator (Caliper Life Science, Hopkinton, Mass.). The concentrated sample was centrifuged and aliquots were radioassayed and analyzed by HPLC. This method recovered an average of 92.1% of the radioactivity from the reaction mixture.
To evaluate species differences in cytochrome P450- and UGT-mediated metabolism, [^14C]DCDQ was incubated for 20 minutes with 0.5 mg/mL liver microsomal proteins from mice, rats, dogs or humans in the presence of the NADPH regenerating system or UDPGA. The assay conditions were the same as described above, and DCDQ concentrations were 12 μM and 56 μM for cytochrome P450- and UGT-mediated metabolism, respectively.
A Waters model 2690 HPLC system (Waters Corp., Milford, Mass.) with a built-in autosampler was used for analysis. Separations were accomplished on a Phenomenex Luna C18(2) column (2×150 mm, 5 μm) (Phenomenex, Torrance, Calif.) coupled with a filter (4×2 mm) cartridge. A variable wavelength UV detector set to monitor 250 nm and Flo-One β Model A525 radioactivity flow detector (Perkin Elmer) with a 250 μL LQTR flow cell were used for data acquisition. The flow rate of Ultima Flow M scintillation fluid was 1 mL/min, providing a mixing ratio of scintillation cocktail to mobile phase of 5:1. […]

SMILES | Chromatographic distribution of radioactivity in dog urine ([1]; 8-24 hr, Mean) [%] | Chromatographic distribution of radioactivity in dog urine ([1]; 8-24 hr, dog 1) [%] | Chromatographic distribution of radioactivity in dog urine ([1]; 8-24 hr, dog 2) [%] | Chromatographic distribution of radioactivity in dog urine ([1]; 8-24 hr, dog 3) [%] | Chromatographic distribution of radioactivity in dog urine ([1]; 24-48 hr, Mean) [%] | Chromatographic distribution of radioactivity in dog urine ([1]; 24-48 hr, dog 1) [%] | Chromatographic distribution of radioactivity in dog urine ([1]; 24-48 hr, dog 2) [%] | Chromatographic distribution of radioactivity in dog urine ([1]; 24-48 hr, dog 3) [%] | Chromatographic distribution of radioactivity in dog urine ([1]; 24-48 hr, dog 4) [%] | Chromatographic distribution of radioactivity in dog plasma ([2]; 2 hr, dog 2) [%] | Chromatographic distribution of radioactivity in dog plasma ([2]; 4 hr, dog 1) [%] | Chromatographic distribution of radioactivity in dog plasma ([2]; 4 hr, dog 2) [%] | Chromatographic distribution of radioactivity in dog plasma ([2]; 24 hr, dog 2) [%] | Chromatographic distribution of radioactivity in dog plasma ([2]; 24 hr, dog 3) [%] | Estimated plasma concentration in dogs ([2]; 48 hr, dog 3) | concentration at 2 h ([2]; 2 hr, dog 2) [ng/mL] | concentration at 4 h ([2]; 4 hr, dog 1) [ng/mL] | concentration at 4 h ([2]; 4 hr, dog 2) [ng/mL] | concentration at 24 h ([2]; 24 hr, dog 2) [ng/mL] | concentration at 24 h ([2]; 24 hr, dog 3) [ng/mL] | also measured
OC1CN2C[C@@H]3CCC[C@@H]3c3cccc(c32)CN1 (stereo partly shown) [Metabolite M1, hydroxy DCDQ] | 6.6 | 8.3 | 4.7 | 6.7 | 5.7 | 4.4 | 7.6 | 7.6 | 3.2 | 2.6 | 8.0 | 4.9 | 2.1 | 6.4 | BQL | 32.9 | 40 | 80.9 | 23 | 125 | Chromatographic distribution of radioactivity in dog plasma ([2]; 2 hr, dog 1): 8.4%; Chromatographic distribution of radioactivity in dog plasma ([2]; 8 hr, dog 1): 8.0%; Chromatographic distribution of radioactivity in dog plasma ([2]; 8 hr, dog 2): 4.7%; Chromatographic distribution of radioactivity in dog plasma ([2]; 8 hr, dog 3): 9.7%; Chromatographic distribution of radioactivity in dog plasma ([2]; 24 hr, dog 1): 6.8%; Chromatographic distribution of radioactivity in dog plasma ([2]; 48 hr, dog 1): 12%; Chromatographic distribution of radioactivity in dog plasma ([2]; 48 hr, dog 2): 6.7%; concentration at 2 h ([2]; 2 hr, dog 1): 30.1 ng/mL; concentration at 8 h ([2]; 8 hr, dog 1): 43.3 ng/mL; concentration at 8 h ([2]; 8 hr, dog 2): 61.9 ng/mL; concentration at 8 h ([2]; 8 hr, dog 3): 24.8 ng/mL; concentration at 24 h ([2]; 24 hr, dog 1): 104 ng/mL; concentration at 48 h ([2]; 48 hr, dog 1): 58 ng/mL; concentration at 48 h ([2]; 48 hr, dog 2): 44.7 ng/mL; metabolite detected in microsomal incubation [3]: not detected
OC1[C@@H]2CCC[C@@H]2c2cccc3c2N1CCNC3 (stereo partly shown) [Metabolite M2, hydroxy DCDQ] | 24 | 21 | 26 | 26 | 22 | 25 | 18 | 22 | 21 | 8.0 | 6.6 | 12 | 5.0 | 7.0 | BQL | 99.5 | 33.1 | 192 | 55.3 | 135 | Chromatographic distribution of radioactivity in dog urine ([1]; 0-8 hr, dog no. not printed (dog 1 by footnote a)): 10%; Estimated plasma concentration in dogs ([2]; 2 hr, dog 1): BQL^b; Estimated plasma concentration in dogs ([2]; 8 hr, dog 1): BQL; Estimated plasma concentration in dogs ([2]; 8 hr, dog 2): BQL; Estimated plasma concentration in dogs ([2]; 8 hr, dog 3): BQL; Estimated plasma concentration in dogs ([2]; 24 hr, dog 1): BQL; Estimated plasma concentration in dogs ([2]; 48 hr, dog 1): BQL; Estimated plasma concentration in dogs ([2]; 48 hr, dog 2): BQL; metabolite detected in microsomal incubation [3]: observed
